Columns and labels:
ACHN = experiment: Concentration required to inhibit growth of human renal (ACHN) cell line; type: functional
DU-145 = experiment: In vitro inhibition of DU145 (human prostate cancer) cell growth.; type: functional
HT-29 = experiment: Concentration required to inhibit growth of human colon (HT-29) cell line; type: functional
MCF7 = experiment: Concentration required to inhibit growth of human breast (MCF-7) cell line; type: functional
Mus musculus [1] = experiment: (§1) Anticancer activity after implantation of HT-29 human adeno carcinoma xenograft in mice at a dose of 300 mg/kg; type: functional
Mus musculus [2] = experiment: Anticancer activity after implantation of HT-29 human adeno carcinoma xenograft in mice at a dose of 300 mg/kg; 0/6; type: functional
OVCAR-8 = experiment: Concentration required to inhibit growth of human ovarian (OVCAR8) cell line; type: functional
PC-3 = experiment: Concentration required to inhibit growth of human prostate (PC3) cell line; type: functional
SK-OV-3 = experiment: Concentration required to inhibit growth of human ovarian (SK-OV3) cell line; type: functional
SW-620 = experiment: Concentration required to inhibit growth of human colon (SW620) cell line; type: functional
UACC-62 = experiment: Concentration required to inhibit growth of human melanoma (UACC62) cell line; type: functional
U-251 = experiment: Concentration required to inhibit growth of human CNS (U251) cell line; type: functional
Mus musculus [3] = experiment: as §1; type: functional; design: reference not given here
NCI-H522 (Homo sapiens) = experiment: Concentration required to inhibit growth of human lung (H522) cell line
NCI/ADR-RES = experiment: in vitro inhibition of MCF-7/ADR (human breast cancer) cell growth.; type: functional
Mus musculus [4] = experiment: Anticancer activity after implantation of HT-29 human adeno carcinoma xenograft in mice at a dose of 300 mg/kg; 1/6; type: functional

| Compound | GI50 (ACHN) [µM] | GI50 (DU-145) [µM] | GI50 (HT-29) [µM] | GI50 (MCF7) [µM] | inhibition in vivo at 300 mg/kg (Mus musculus [1]) [%] | Mortality (Mus musculus [2]) | GI50 (OVCAR-8) [µM] | GI50 (PC-3) [µM] | GI50 (SK-OV-3) [µM] | GI50 (SW-620) [µM] | GI50 (UACC-62) [µM] | GI50 (U-251) [µM] | Mean body weight (Mus musculus [3]) [%] | GI50 (NCI-H522 (Homo sapiens)) [µM] | GI50 (NCI/ADR-RES) [µM] | Mortality (Mus musculus [4]) |
| --- | --- | --- | --- | --- | --- | --- | --- | --- | --- | --- | --- | --- | --- | --- | --- | --- |
| O=S(=O)(/C=C/c1ccc(F)cc1)Cc1ccc(Nc2ncnc3ccccc23)cc1 | 0.01 | 0.3 | 1 | 16 | 84 | 0 | 2 | 1 | 2 | 100 | 5 | 0.01 | 5 | 13 | – | – |
| O=S(=O)(/C=C/c1ccc(Cl)cc1Cl)Cc1ccc(Nc2ncnc3ccc(Br)cc23)cc1 | 0.1 | 2 | 28 | 4 | 22 | – | 3 | 4 | 1 | > 100 | 2 | 4 | 4 | 8 | > 100 | 1 |
| COc1cc2ncnc(Nc3ccc(CS(=O)(=O)/C=C/c4ccc(F)cc4)cc3)c2cc1OCCCN1CCOCC1 | 0.2 | 4 | > 100 | 3 | – | – | > 100 | 28 | > 100 | > 100 | 55 | 18 | – | > 100 | 3 | – |
| CC(C)(C)c1cc(/C=C/S(=O)(=O)Cc2ccc(Nc3ncnc4ccccc34)cc2)cc(C(C)(C)C)c1O | > 100 | 1 | 17 | 13 | – | – | 5 | 7 | 3 | 9 | 6 | 38 | – | 45 | > 100 | – |
| COc1cc2ncnc(Nc3ccc(CS(=O)(=O)/C=C/c4ccc(F)cc4)cc3)c2cc1OC | > 100 | > 100 | > 100 | > 100 | – | – | > 100 | > 100 | > 100 | > 100 | > 100 | > 100 | – | > 100 | > 100 | – |
| COc1cc2ncnc(Nc3ccc(CS(=O)(=O)/C=C/c4ccc(Cl)cc4Cl)cc3)c2cc1OC | 15 | 1.4 | 6 | 11 | 68 | 0 | 2 | 5 | 2 | 2 | 21 | 13 | 12 | 6 | 24 | – |
| N#Cc1ccc(/C=C/S(=O)(=O)Cc2ccc(Nc3ncnc4ccccc34)cc2)cc1 | > 100 | > 100 | > 100 | > 100 | – | – | > 100 | > 100 | > 100 | > 100 | > 100 | > 100 | – | > 100 | > 100 | – |
| O=S(=O)(/C=C/c1ccc(Cl)cc1Cl)Cc1ccc(Nc2ncnc3ccccc23)cc1 | 0.1 | 3 | 24 | 4 | 22 | 0 | 4 | 19 | 2 | 14 | 2 | 4 | 7 | 12 | 5 | – |
